Structures can show the parent of a compound that is named as a salt. Each block holds one molecule with its values, some of them ahead of it.
Assays:
immobilized albumin = immobilized albumin (Homo sapiens, UniProt P02768); assay: Competition of added albumin with binding of fluorescent paclitaxel to immobilized albumin; settings: similar effect with binding to endothelial cells
Text: Albumin was immobilized on a microtiter plate. […] Thus invention compositions having lower amounts of albumin are preferred.

[1] = cited from earlier work
[2] = 22.5° C.; cited from earlier work

Chain of immobilized albumin (P02768 25-609): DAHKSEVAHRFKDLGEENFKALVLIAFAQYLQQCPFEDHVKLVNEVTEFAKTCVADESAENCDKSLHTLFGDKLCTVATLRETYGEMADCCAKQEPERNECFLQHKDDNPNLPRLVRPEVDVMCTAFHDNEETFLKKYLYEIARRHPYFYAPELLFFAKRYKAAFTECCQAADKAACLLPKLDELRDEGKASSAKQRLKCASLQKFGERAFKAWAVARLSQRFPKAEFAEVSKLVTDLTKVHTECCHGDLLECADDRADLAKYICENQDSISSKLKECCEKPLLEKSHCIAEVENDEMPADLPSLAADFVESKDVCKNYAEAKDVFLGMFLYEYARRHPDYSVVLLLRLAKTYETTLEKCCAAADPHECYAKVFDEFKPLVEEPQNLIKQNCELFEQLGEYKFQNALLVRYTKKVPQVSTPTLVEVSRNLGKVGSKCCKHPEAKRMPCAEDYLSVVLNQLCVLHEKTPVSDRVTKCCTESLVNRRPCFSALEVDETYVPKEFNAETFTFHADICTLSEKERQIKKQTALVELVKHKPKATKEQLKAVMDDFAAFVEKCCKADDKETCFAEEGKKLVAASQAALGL

binding of fluorescent paclitaxel to immobilized albumin as added albumin increased (immobilized albumin): a corresponding decrease in binding
Molecule: albumin

Molecule: CC(=O)N(O)CCCCCNC(=O)CCC(=O)N(O)CCCCCNC(=O)CCC(=O)N(O)CCCCCN [Deferoxamine mesylate USP, N-[5-[3-[(5-aminopentyl)-hydroxycarbamoyl]-propion-amido]pentyl]-3[[5-((N-hydroxyacetamido)pentyl]-carbamoyl]propionohydroxamic acid monomethanesulfonate (salt)]
solubility in water [1]: freely soluble in water

Molecule: CC(C)c1cccc(C(C)C)c1O [propofol, 2,6-diisopropylphenol]
maximum solubility in water [2]: 1.0 ± 0.02 µM

— patent US9012518B2, “Compositions and methods of delivery of pharmacological agents” (Abraxis BioScience, LLC, priority 2002, dated 2015)
